Data on 1 compound can be found in patent US20220315908A1, “NOVEL GARDNERELLA ENDOLYSINS AND USES THEREOF” (priority 2019, published 2022).

The test system of one assay is G. leopoldii (Gv_11). Kind of assay: MIC and MBC microbroth dilution. It is filed as cell-based, Gardnerella leopoldii. To be noted: for MIC / MBC: Gardnerella leopoldii; for MIC: 48 h. The method, then:
(§1) One of the main deficiencies in the treatment of BV is the high rate of recurrence in many women, which leads to repeated administration of antibiotics and concomitant destabilization of the microbiome and other side effects. The minimal inhibitory concentration (MIC) and minimal bactericidal concentration (MBC) on Gardnerella cells of the strains also used for the endolysin activity assays were then measured using the method described in Reference Example 6 and 7. […] Essentially, Gardnerella suspensions at 2.5×10^7 CFU/ml were incubated with the concentration of antibiotics as indicated and incubated for 48 h at 37° C. under anaerobic conditions. […] OD(610) was measured at the beginning and the end of the experiment. At the end of the experiment, 2 ul of each reaction mix was spotted on agar to determine the MBC.
(§2) The conditions under which MIC and MBC were measured are more rigorous than the standard.
Example 7—Activity assays of a representative (H2B10) of domain swapped endolysins on the growth in suspension of different Gardnerella strains. […] The conditions under which MBC was measured are more rigorous than the standard. […] In general, it is known, that antibiotics only insufficiently eradicate the Gardnerella biofilm, a hallmark of BV, which is one suspected reason for the reported very high recurrence rate of BV. Despite leaving residual viable biofilm, antibiotics wipe parts of the beneficial organisms of the vaginal microbiome which then opens an ecological niche for other pathogens, e.g. fungi.
(§3) Bacteria were plated from cryo stock on BD Choc Agar plates (Gardnerella) and incubated at 37° C. for 48 h under anaerobic conditions. Colonies were scraped from the plate, resuspended in Hardy Broth or NYC-III-HS-pH 5.0, and the suspension adjusted to OD (610 or 620 nm as indicated) 0.05. It has to be noted that two Tecan Microplate readers, having respectively a 610 nm or 620 nm filter, have been used interchangeably in the experiments. Although it doesn't make any difference for the experiments, the exact wavelength used is specified in each example. Antibiotics were prepared as 20× stocks for each of the required final concentrations. 95 μl of cell suspension was mixed with 5 μl antibiotics dilution in a 384-well plate. OD (610-620 as indicated) at the start of the reaction was measured, then the plate was incubated at 37° C. for 48 h under anaerobic conditions. After that, the OD (610-620 as indicated) was measured again for MIC determination, where MIC was defined as the lowest concentration of antibiotic where the OD (610-620 as indicated) was not above the level measured at the beginning of the experiment. After measuring OD, 2 μl of each well were spotted on a NYC-III+HS Agar plate. The plates were then incubated for further 48 h at 37° C. under anaerobic conditions. After incubation, cell growth on each spot was evaluated, and the MBC defined as the lowest concentration of antibiotics where no bacteria grew on the plate. The experiments were conducted in triplicate for each condition. In the second round of MIC and MBC experiments with antibiotics the Gardnerella cell suspension was adjusted to the McFarland standard 0.5 (approximately OD (610) 0.07) and then diluted 1:75 according to the CLSI (Clinical and Laboratory Standards Institute) standards. Antibiotics were prepared according to the CLSI standards and 50 μl of cell suspension was mixed in a 96-well plate with 50 μl antibiotics. Otherwise the MIC and MBC was determined as described above.
(In general: In broth dilution the organism is exposed to a series of concentrations in liquid medium.)

The test system of another assay is G. piotii (Gv_17). Kind of assay: MIC and MBC microbroth dilution. It is filed as cell-based, Gardnerella piotii. To be noted: for MIC / MBC: Gardnerella piotii; for MIC: 48 h. The method, then:
as §1, §2
as §3, with “above. For the MIC and MBC determination of the domain swapped endolysin H2B10 50 μl of Gardnerella cell suspension was mixed in a 96-well plate with 50 μl of H2B10 containing solution, which where serially diluted 1:1. OD610 at the start of the reaction was measured, then the plate was incubated at 37° C. for 48 h under anaerobic conditions. After that, the OD(610) was measured again for MIC determination, where MIC was defined as the lowest concentration of H2B10 where the OD was not or only slightly above the level measured at the beginning of the experiment.” for “above.”

[1] abbreviates: first round: […]10^7 CFU/ml, Hardy broth, 384-well, 48 h 37° C. anaerobic.
Where [2] appears, read: second round: 1×10^5-1×10^6 CFU/ml (CLSI), NYC-III broth, 96-well, 48 h anaerobic.
[3] abbreviates: second round: 1×10^5-1×10^6 CFU/ml (CLSI), NYC-III broth, 96-well.

In brackets after ≈: the same amount, converted by molar mass.

A word on the MIC: it is the least concentration at which growth counts as inhibited. A low value points to a more susceptible organism. One may read the MBC as the smallest concentration meeting the test's criterion for killing. Low readings indicate greater bactericidal potency, high ones weaker bactericidal potency. Turning to `Cc1ncc([N+](=O)[O-])n1CCO` [Metronidazole], the MIC against G. leopoldii (Gv_11) (setting [1]) is above 128 µg/mL; in the assay on G. leopoldii (Gv_11) (setting [2]) it was 128 µg/mL (≈ 748 µM); against G. piotii (Gv_17) (setting [1]), 64 µg/mL (≈ 374 µM); against G. piotii (Gv_17) (setting [2]), 16 µg/mL (≈ 93.5 µM). The MBC is above 128 µg/mL in the assay with G. leopoldii (Gv_11) (setting [3]); above 128 µg/mL against G. leopoldii (Gv_11) (first round: 2.5×10^7 CFU/ml, minimal concentration fully eradicating the suspension); above 128 µg/mL against G. piotii (Gv_17) (first round: […]10^7 CFU/ml, minimal concentration fully eradicating the suspension); 64 µg/mL (≈ 374 µM) in the assay with G. piotii (Gv_17) (setting [3]). The “resistance class of MIC, Metronidazole” value with G. leopoldii (Gv_11) (first round) and in the assay with G. piotii (Gv_17) (first round) was “R (>=32 μg/mi for Metronidazole)” each time. Also, the “resistance class given with MBC, Metronidazole” value with G. leopoldii (Gv_11) (second round) and in the assay on G. piotii (Gv_17) (second round) was “R (>=32 μg/mi for Metronidazole)” throughout. For the same compound, the “resistance class printed with MIC, Metronidazole” value with G. leopoldii (Gv_11) (second round) is “R (>=32 μg/mi for Metronidazole)”.
